Patent publication EP3088535A1 (priority 2015, dated 2016)

Experiments:
[1] = target: Reverse Transcriptase from Patient #C infected by HIV-1 (Human immunodeficiency virus type 1, UniProt P04585)
Procedure: (§1) Transformed cells (that grew in TRP lacking media) were incubated for 16h with shacking in 13 mL rich medium (Yeast extract Peptone Dextrose) at a final cell density 0,06 OD / mL.
(§2) 13 mL cell culture supernatant was collected after centrifugation at 1500 rpm for 5min and kept as the source for in vitro Reverse Transcriptase resistance analysis.
(§3) HIV Reverse Transcriptase resistance to reverse transcriptase inhibitors was analyzed as follows.
(§4) In a final volume of 150µl, 120µl of transformed cell's medium were incubated in 56 mM Tris-HCl, 56 mM KCl and 9 mM MgCl2 with: • 1.76µg of MS2 RNA (SEQ ID NO: 20), and • 0.059 pmoles of 5'biotinylated primer of SEQ ID NO: 19, and • dNTP mixture (1.5pmoles of each one; dATP, dGTP, dCTP, and dTTP), and • 0.19 pmoles of DIG (digoxigenin) modified dUTP, and • 30 µl of one of each concentration out of eight serial one to one dilutions of Reverse Transcriptase inhibitors in water (in this way the inhibitor was further diluted […]).
(§5) The Reverse Transcriptase inhibitor's one to one dilution started at the following concentrations:
(§6) The mixture reaction was incubated at 37°C for an overnight period (16 - 20 hours).
(§7) At the end of the incubation, each reaction mixture was transferred to a streptavidin coated flat bottom well for ELISA based RNA retro-transcribed DNA determination.
(§8) Wells were washed three times with 200µl of wash buffer (0.1%BSA and 0.05% Tween in PBS) before 30min incubation at room temperature with 100µl of a 1:1000 dilution of Peroxidase -conjugated monoclonal mouse anti-DIG (from Jackson Immunosearch ref N°JIR 200-032-156) in wash buffer.

[2] = target: Reverse Transcriptase from Patient #A infected by HIV-1 (Human immunodeficiency virus type 1, UniProt P04585)
Procedure: as §1, §2, §3, §4, §5, §6, §7, §8

[3] = target: Reverse Transcriptase from Patient #B infected by HIV-1 (Human immunodeficiency virus type 1, UniProt P04585)
Procedure: as §1, §2, §3, §4, §5, §6, §7, §8

Measured: sensitivity of RT to inhibitor compared with the reference isolate HIV-1 IIIB

Cc1ccnc2c1NC(=O)c1cccnc1N2C1CC1 [NVP, nevirapine]
more sensitive: all assays above
